From PMC3894180, “GABAA Receptors Containing ρ1 Subunits Contribute to In Vivo Effects of Ethanol in Mice” (PLoS ONE, 2014) come the findings set out here.

The test has as its target T1, human GABAA ρ2 receptor (homomeric) (Homo sapiens, UniProt P28476).
T1 construct: gene GABRR2; full-length homomeric pentamer; cRNA from pGEMHE vector injected into Xenopus laevis oocytes
The test can be described thus: two-electrode voltage clamp, Xenopus oocytes. In kind it is cell-based. Background: Two-electrode voltage clamp is typically applied to oocytes expressing channels or transporters.

T1 sequence (P28476 21-465): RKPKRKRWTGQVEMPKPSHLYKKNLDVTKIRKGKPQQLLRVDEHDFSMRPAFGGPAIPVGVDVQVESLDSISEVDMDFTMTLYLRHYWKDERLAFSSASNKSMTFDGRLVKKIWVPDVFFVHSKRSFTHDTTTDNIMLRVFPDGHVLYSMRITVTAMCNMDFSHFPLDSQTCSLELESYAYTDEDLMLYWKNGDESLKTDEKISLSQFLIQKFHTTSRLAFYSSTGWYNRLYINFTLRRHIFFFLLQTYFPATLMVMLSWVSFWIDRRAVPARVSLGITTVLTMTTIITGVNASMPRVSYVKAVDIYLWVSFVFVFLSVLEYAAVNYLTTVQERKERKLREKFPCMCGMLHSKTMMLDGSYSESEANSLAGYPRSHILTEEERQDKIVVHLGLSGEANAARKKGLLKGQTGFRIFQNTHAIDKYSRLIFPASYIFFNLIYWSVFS

In general, EC50 refers to the concentration needed to bring the measured effect to its halfway point. The low end stands for an effect from little substance, the high end for a need for much substance. As to `NCCCC(=O)O` [GABA], the EC50 was 891 nM.
